# Assay results as given in ChEMBL document CHEMBL1201862, “PubChem BioAssay data set” (2004).
#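 A five-concentration, 48-hour dose response in 96-well plates underlies each endpoint, interpolated linearly between surrounding concentrations. GI50 marks 50% less growth.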 Calls of active or inactive are those of the source. Rule as the data show it: active = GI50 up to about 1.1 µM and inactive = higher.
# How the values were obtained:
# Test in all cases: NCI anticancer screen, dose series, 48 h
# KM12 = test system: KM12
# UACC-62 = test system: UACC-62
# HOP-92 = test system: HOP-92
# RXF 393 = test system: RXF 393
# NCI-H226 = test system: NCI-H226
# EKVX = test system: EKVX
# ACHN = test system: ACHN
# HL-60 = test system: HL-60
# NCI-H23 = test system: NCI-H23
# A549 = test system: A549
# UO-31 = test system: UO-31
# RPMI-8226 = test system: RPMI-8226
# HOP-62 = test system: HOP-62
# CCRF-CEM = test system: CCRF-CEM
# SF-268 = test system: SF-268
# HCT-116 = test system: HCT-116
# COLO 205 = test system: COLO 205
# Malme-3M = test system: Malme-3M
# 786-0 = test system: 786-0
SMILES,GI50 (KM12),GI50 (UACC-62),GI50 (HOP-92),GI50 (RXF 393),GI50 (NCI-H226),GI50 (EKVX),GI50 (ACHN),GI50 (HL-60),GI50 (NCI-H23),GI50 (A549),GI50 (UO-31),GI50 (RPMI-8226),GI50 (HOP-62),GI50 (CCRF-CEM),GI50 (SF-268),GI50 (HCT-116),GI50 (COLO 205),GI50 (Malme-3M),GI50 (786-0)
N#C/N=[N+](\[O-])c1ccc(C(=O)O)cc1,> 100 µM (inactive),17.4 µM (inactive),20.4 µM (inactive),16.1 µM (inactive),19.2 µM (inactive),18.4 µM (inactive),18.4 µM (inactive),< 0.01 µM (active),17.7 µM (inactive),> 100 µM (inactive),16.6 µM (inactive),14.5 µM (inactive),16.6 µM (inactive),32.7 µM (inactive),19.4 µM (inactive),–,–,–,–
CC(=O)OC1/C=C(\C)C(OC(C)=O)C/C=C(/C)CCC2C(/C=C/C1=O)C2(C)C (stereo unspecified),> 100 µM (inactive),> 100 µM (inactive),42.2 µM (inactive),79.4 µM (inactive),> 100 µM (inactive),> 100 µM (inactive),> 100 µM (inactive),–,> 100 µM (inactive),> 100 µM (inactive),67.5 µM (inactive),–,92.5 µM (inactive),> 100 µM (inactive),> 100 µM (inactive),> 100 µM (inactive),> 100 µM (inactive),> 100 µM (inactive),–
C=CC[N+]12CN3CN(CN(C3)C1)C2,29 µM (inactive),27.4 µM (inactive),23.8 µM (inactive),18.5 µM (inactive),–,20.4 µM (inactive),21.3 µM (inactive),35.3 µM (inactive),24.2 µM (inactive),31.3 µM (inactive),21 µM (inactive),4.14 µM (inactive),> 100 µM (inactive),5.83 µM (inactive),24.6 µM (inactive),19 µM (inactive),25.9 µM (inactive),18.7 µM (inactive),–
O=C1CCC2COc3ccc(O)c1c32 (stereo unspecified),–,> 100 µM (inactive),79.3 µM (inactive),> 100 µM (inactive),–,51.2 µM (inactive),> 100 µM (inactive),> 100 µM (inactive),> 100 µM (inactive),> 100 µM (inactive),–,> 100 µM (inactive),–,> 100 µM (inactive),–,> 100 µM (inactive),> 100 µM (inactive),–,–
COc1ccc2c(c1)OCCC1=C2SCC2(C)CCN=C12 (stereo unspecified),> 100 µM (inactive),> 100 µM (inactive),–,> 100 µM (inactive),35.6 µM (inactive),–,–,29 µM (inactive),61.7 µM (inactive),> 100 µM (inactive),–,> 100 µM (inactive),> 100 µM (inactive),> 100 µM (inactive),> 100 µM (inactive),> 100 µM (inactive),> 100 µM (inactive),–,> 100 µM (inactive)
CCOC(=O)CC[C@H](NC(=O)c1nc[nH]c1/N=N/N(C)C)C(=O)OCC,> 100 µM (inactive),> 100 µM (inactive),–,–,> 100 µM (inactive),> 100 µM (inactive),> 100 µM (inactive),> 100 µM (inactive),> 100 µM (inactive),> 100 µM (inactive),> 100 µM (inactive),> 100 µM (inactive),> 100 µM (inactive),> 100 µM (inactive),> 100 µM (inactive),> 100 µM (inactive),> 100 µM (inactive),> 100 µM (inactive),> 100 µM (inactive)
O=P1(O)c2ccccc2CS(=O)(=O)Cc2ccccc21,> 100 µM (inactive),> 100 µM (inactive),> 100 µM (inactive),> 100 µM (inactive),> 100 µM (inactive),> 100 µM (inactive),> 100 µM (inactive),> 100 µM (inactive),> 100 µM (inactive),> 100 µM (inactive),> 100 µM (inactive),–,> 100 µM (inactive),> 100 µM (inactive),> 100 µM (inactive),> 100 µM (inactive),> 100 µM (inactive),–,> 100 µM (inactive)
COc1ccc(C(C2C(=O)N(C)C(=O)N(C)C2=O)C(F)(F)C(=O)N(C)C)cc1 (stereo unspecified),> 100 µM (inactive),> 100 µM (inactive),> 100 µM (inactive),> 100 µM (inactive),> 100 µM (inactive),> 100 µM (inactive),> 100 µM (inactive),–,> 100 µM (inactive),> 100 µM (inactive),> 100 µM (inactive),> 100 µM (inactive),> 100 µM (inactive),> 100 µM (inactive),> 100 µM (inactive),> 100 µM (inactive),> 100 µM (inactive),> 100 µM (inactive),> 100 µM (inactive)
